Assays:
Rattus norvegicus [1] = experiment: Volume of the gastric juice (Control value = 4.7+/-0.4) of stomach content of pylorus ligated rats was measured (10 mg/kg po of the Compound was administered 1 hr before the pylorus ligation); assay type: functional
Rattus norvegicus [2] = experiment: Percent inhibition of gastric lesions induced by ethanol was measured, after administration of 10 mg/kg po in rats; assay type: functional; conditions: Stomach
Rattus norvegicus [3] = experiment: pH of the gastric juice (Control value = 1.42+/-0.02) of stomach content of pylorus ligated rats was measured (5 mg/kg po of the Compound was administered 1 hr before the pylorus ligation); assay type: ADME, organism-based; conditions: in vivo
Rattus norvegicus [4] = experiment: Acid output from the stomach (control value = 120.3+/-19.7) in pylorus ligated rats (10 mg/kg po of the Compound was administered 1 hr before the pylorus ligation); assay type: functional
Rattus norvegicus [5] = experiment: Reduction in length (control value = 159.2+/-21) of gastric lesions induced by endomethacin was measured, after administration of 20 mg/kg po in rats; assay type: functional, Stomach
Rattus norvegicus [6] = experiment: Volume of the gastric juice (Control value = 4.7+/-0.4) of stomach content of pylorus ligated rats was measured (5 mg/kg po of the Compound was administered 1 hr before the pylorus ligation); assay type: functional
Rattus norvegicus [7] = experiment: Percent inhibition of gastric lesions induced by endomethacin was measured, after administration of 7.5 mg/kg po in rats; assay type: functional; conditions: Stomach
Rattus norvegicus [8] = experiment: Acid output from the stomach (control value = 120.3+/-19.7) in pylorus ligated rats (20 mg/kg po of the Compound was administered 1 hr before the pylorus ligation); assay type: functional
Rattus norvegicus [9] = experiment: Percent inhibition of gastric lesions induced by endomethacin was measured, after administration of 2.5 mg/kg po in rats; assay type: functional; conditions: Stomach
Rattus norvegicus [10] = experiment: Reduction in length (control value = 59.8+/-6) of gastric lesions induced by endomethacin was measured, after administration of 2.5 mg/kg po in rats; assay type: functional, Stomach
Rattus norvegicus [11] = experiment: Reduction in length (control value = 59.8+/-6) of gastric lesions induced by endomethacin was measured, after administration of 7.5 mg/kg po in rats; assay type: functional, Stomach
Rattus norvegicus [12] = experiment: Reduction in length (control value = 59.8+/-6) of gastric lesions induced by endomethacin was measured, after administration of 5 mg/kg po in rats; assay type: functional, Stomach
Rattus norvegicus [13] = experiment: pH of the gastric juice (Control value = 1.42+/-0.02) of stomach content of pylorus ligated rats was measured (20 mg/kg po of the Compound was administered 1 hr before the pylorus ligation); assay type: ADME, organism-based; conditions: in vivo
Rattus norvegicus [14] = experiment: Percent inhibition of gastric lesions induced by ethanol was measured, after administration of 15 mg/kg po in rats; assay type: functional; conditions: Stomach
Rattus norvegicus [15] = experiment: Percent inhibition of gastric lesions induced by endomethacin was measured, after administration of 5 mg/kg po in rats; assay type: functional; conditions: Stomach
Rattus norvegicus [16] = experiment: pH of the gastric juice (Control value = 1.42+/-0.02) of stomach content of pylorus ligated rats was measured (10 mg/kg po of the Compound was administered 1 hr before the pylorus ligation); assay type: ADME, organism-based; conditions: in vivo
Rattus norvegicus [17] = experiment: Reduction in length (control value = 159.2+/-21) of gastric lesions induced by ethanol was measured, after administration of 15 mg/kg po in rats; assay type: functional, Stomach
Rattus norvegicus [18] = experiment: Reduction in length (control value = 159.2+/-21) of gastric lesions induced by ethanol was measured, after administration of 10 mg/kg po in rats; assay type: functional, Stomach
Rattus norvegicus [19] = experiment: Volume of the gastric juice (Control value = 4.7+/-0.4) of stomach content of pylorus ligated rats was measured (20 mg/kg po of the Compound was administered 1 hr before the pylorus ligation); assay type: functional
Rattus norvegicus [20] = experiment: Acid output from the stomach (control value = 120.3+/-19.7) in pylorus ligated rats (5 mg/kg po of the Compound was administered 1 hr before the pylorus ligation); assay type: functional
Rattus norvegicus [21] = experiment: Percent inhibition of gastric lesions induced by ethanol was measured, after administration of 20 mg/kg po in rats; assay type: functional; conditions: Stomach
Rattus norvegicus [22] = experiment: Percent inhibition of gastric lesions induced by endomethacin was measured, after administration of 10 mg/kg po in rats; assay type: functional; conditions: Stomach
Rattus norvegicus [23] = experiment: Reduction in length (control value = 141+/-14.3) of gastric lesions induced by ethanol was measured, after administration of 2.5 mg/kg po in rats; assay type: functional, Stomach
Rattus norvegicus [24] = experiment: Reduction in length (control value = 70.4+/-2.3) of gastric lesions induced by endomethacin was measured, after administration of 2.5 mg/kg po in rats; assay type: functional, Stomach
Rattus norvegicus [25] = experiment: Percent inhibition of gastric lesions induced by ethanol was measured, after administration of 5 mg/kg po in l-NAME-pretreated rats; assay type: functional; conditions: Stomach
Rattus norvegicus [26] = experiment: Acid output from the stomach (control value = 120.3+/-11.1) in pylorus ligated rats (5 mg/kg po of the Compound was administered 1 hr before the pylorus ligation); assay type: functional
Rattus norvegicus [27] = experiment: Volume of the gastric juice (control value = 4.7+/-.3) of stomach content of pylorus ligated rats was measured(2.5 mg/kg po of the Compound was administered 1 hr before the pylorus ligation); assay type: functional
Rattus norvegicus [28] = experiment: Percent inhibition of gastric lesions (length = 34.3+/-5.5) induced by ethanol was measured, after administration of 2.5 mg/kg po in rats; assay type: functional; conditions: Stomach
Rattus norvegicus [29] = experiment: Reduction in length (control value = 190.1+/-9.3) of gastric lesions induced by endomethacin was measured, after administration of 5 mg/kg po L-NAME-pretreated in rats; assay type: functional, Stomach
Rattus norvegicus [30] = experiment: Percent inhibition of gastric lesions (length = 126.6+/-16.9) induced by ethanol was measured, after administration of 5 mg/kg po in endomethacin pretreated r rats; assay type: functional; conditions: Stomach
Rattus norvegicus [31] = experiment: pH of the gastric juice (control value = 1.39+/-0.02) of stomach content of pylorus ligated rats was measured (2.5 mg/kg po of the Compound was administered 1 hr before the pylorus ligation); assay type: ADME, organism-based; conditions: in vivo
Rattus norvegicus [32] = experiment: Percent inhibition of gastric lesions (length = 50+/-9.9) induced by ethanol was measured, after administration of 5 mg/kg po in l-NAME-pretreated rats; assay type: functional; conditions: Stomach
Rattus norvegicus [33] = experiment: Reduction in length (control value = 206.7+/-6.3) of gastric lesions induced by endomethacin was measured, after administration of 5 mg/kg po NEM-pretreated in rats; assay type: functional, Stomach
Rattus norvegicus [34] = experiment: Percent inhibition of gastric lesions (length = 139.3+/-11.2) induced by ethanol was measured, after administration of 2.5 mg/kg po in endomethacin pretreated rats; assay type: functional; conditions: Stomach
Rattus norvegicus [35] = experiment: Percent inhibition of gastric lesions (length = 24.9 +/-3.6) induced by ethanol was measured, after administration of 5 mg/kg po in rats; assay type: functional; conditions: Stomach
Rattus norvegicus [36] = experiment: Reduction in length (control value = 152.9+/-9.7) of gastric lesions induced by ethanol was measured, after administration of 2.5 mg/kg po in Indomethacin-pretreated rats; assay type: functional, Stomach
Rattus norvegicus [37] = experiment: Percent inhibition of gastric lesions induced by ethanol was measured, after administration of 2.5 mg/kg po in rats; assay type: functional; conditions: Stomach
Rattus norvegicus [38] = experiment: Percent inhibition of gastric lesions (length = 110+/-8.4) induced by ethanol was measured, after administration of 2.5 mg/kg po in NEM-pretreated rats; assay type: functional; conditions: Stomach
Rattus norvegicus [39] = experiment: Percent inhibition of gastric lesions induced by ethanol was measured, after administration of 1.25 mg/kg po in rats; assay type: functional; conditions: Stomach
Rattus norvegicus [40] = experiment: Percent inhibition of gastric lesions induced by ethanol was measured, after administration of 5 mg/kg po in rats; assay type: functional; conditions: Stomach
Rattus norvegicus [41] = experiment: Volume of the gastric juice (control value = 4.7+/-.3) of stomach content of pylorus ligated rats was measured (5 mg/kg po of the Compound was administered 1 hr before the pylorus ligation); assay type: functional
Rattus norvegicus [42] = experiment: Reduction in length (control value = 190.1+/-9.3) of gastric lesions induced by endomethacin was measured, after administration of 2.5 mg/kg po L-NAME-pretreated in rats; assay type: functional, Stomach
Rattus norvegicus [43] = experiment: Reduction in length (control value = 70.4+/-2.3) of gastric lesions induced by endomethacin was measured, after administration of 5 mg/kg po in rats; assay type: functional, Stomach
Rattus norvegicus [44] = experiment: Reduction in length (control value = 206.7+/-6.3) of gastric lesions induced by endomethacin was measured, after administration of 2.5 mg/kg po NEM-pretreated in rats; assay type: functional, Stomach
Rattus norvegicus [45] = experiment: Reduction in length (control value = 70.4+/-2.3) of gastric lesions induced by endomethacin was measured, after administration of 1.25 mg/kg po in rats; assay type: functional, Stomach
Rattus norvegicus [46] = experiment: Percent inhibition of gastric lesions induced by endomethacin was measured, after administration of 1.25 mg/kg po in rats; assay type: functional; conditions: Stomach
Rattus norvegicus [47] = experiment: Acid output from the stomach (control value = 120.3+/-11.1) in pylorus ligated rats (2.5 mg/kg po of the Compound was administered 1 hr before the pylorus ligation); assay type: functional
Rattus norvegicus [48] = experiment: Reduction in length (control value = 141+/-14.3) of gastric lesions induced by ethanol was measured, after administration of 5 mg/kg po in rats; assay type: functional, Stomach
Rattus norvegicus [49] = experiment: Reduction in length (control value = 152.9+/-9.7) of gastric lesions induced by ethanol was measured, after administration of 5 mg/kg po in Indomethacin-pretreated rats; assay type: functional, Stomach
Rattus norvegicus [50] = experiment: Percent inhibition of gastric lesions (length = 92.8+/-8) induced by ethanol was measured, after administration of 2.5 mg/kg po in l-NAME-pretreated rats; assay type: functional; conditions: Stomach
Rattus norvegicus [51] = experiment: Reduction in length (control value = 141+/-14.3) of gastric lesions induced by ethanol was measured, after administration of 1.25 mg/kg po in rats; assay type: functional, Stomach
Rattus norvegicus [52] = experiment: pH of the gastric juice (control value = 1.39+/-0.02) of stomach content of pylorus ligated rats was measured (5 mg/kg po of the Compound was administered 1 hr before the pylorus ligation); assay type: ADME, organism-based; conditions: in vivo

## COc1ccc2[nH]c([S+]([O-])Cc3ncc(C)c(OC)c3C)nc2c1 (centres undefined) [OMEPRAZOLE]
Rattus norvegicus [1]
  Volume: 2.5 ml 4hr-1
Rattus norvegicus [2]
  inhibition in vivo at 10 mg/kg: 43.1%
Rattus norvegicus [3]
  pH: 1.63
Rattus norvegicus [4]
  Acid output: 46.8 u equiv hr-1
Rattus norvegicus [5]
  Length: 16.9 mm
Rattus norvegicus [6]
  Volume: 3.3 ml 4hr-1
Rattus norvegicus [7]
  inhibition in vivo at 7.5 mg/kg: 86.6%
Rattus norvegicus [8]
  Acid output: 14.6 u equiv hr-1
Rattus norvegicus [9]
  inhibition in vivo at 2.5 mg/kg: 42.5%
Rattus norvegicus [10]
  Length: 34.4 mm
Rattus norvegicus [11]
  Length: 8 mm
Rattus norvegicus [12]
  Length: 24.6 mm
Rattus norvegicus [13]
  pH: 5.54
Rattus norvegicus [14]
  inhibition in vivo at 15 mg/kg: 82%
Rattus norvegicus [15]
  inhibition in vivo at 5 mg/kg: 58.9%
Rattus norvegicus [16]
  pH: 1.8
Rattus norvegicus [17]
  Length: 28.6 mm
Rattus norvegicus [18]
  Length: 90.6 mm
Rattus norvegicus [19]
  Volume: 2.2 ml 4hr-1
Rattus norvegicus [20]
  Acid output: 62.6 u equiv hr-1
Rattus norvegicus [21]
  inhibition in vivo at 20 mg/kg: 89.4%
Rattus norvegicus [22]
  inhibition in vivo at 10 mg/kg: 98.2%

## CC1CC[C@@]2(OC1)OC1C[C@H]3[C@@H]4CC=C5C[C@@H](O[C@@H]6O[C@H](CO)[C@@H](O[C@@H]7O[C@@H](CO)[C@H](O)[C@H]7O)[C@H](O)[C@H]6O[C@@H]6O[C@@H](C)[C@H](O)[C@@H](O)[C@H]6O)CC[C@]5(C)[C@H]4CC[C@]3(C)[C@@]1(O)[C@@H]2C (some centres undefined)
Rattus norvegicus [23]
  Length: 24.1 mm
Rattus norvegicus [24]
  Length: 30.3 mm
Rattus norvegicus [25]
  inhibition in vivo at 5 mg/kg: 69.5%
Rattus norvegicus [26]
  Acid output: 71.8 u equiv hr-1
Rattus norvegicus [27]
  Volume: 4.1 ml 4hr-1
Rattus norvegicus [28]
  inhibition in vivo at 2.5 mg/kg: 74.8%
Rattus norvegicus [29]
  Length: 50 mm
Rattus norvegicus [30]
  inhibition in vivo at 5 mg/kg: 17.2%
Rattus norvegicus [31]
  pH: 1.41
Rattus norvegicus [32]
  inhibition in vivo at 5 mg/kg: 73.7%
Rattus norvegicus [33]
  Length: 63 mm
Rattus norvegicus [34]
  inhibition in vivo at 2.5 mg/kg: 8.9%
Rattus norvegicus [9]
  inhibition in vivo at 2.5 mg/kg: 57%
Rattus norvegicus [35]
  inhibition in vivo at 5 mg/kg: 81.7%
Rattus norvegicus [36]
  Length: 139 mm
Rattus norvegicus [37]
  inhibition in vivo at 2.5 mg/kg: 82.9%
Rattus norvegicus [38]
  inhibition in vivo at 2.5 mg/kg: 46.8%
Rattus norvegicus [39]
  inhibition in vivo at 1.25 mg/kg: 48.5%
Rattus norvegicus [15]
  inhibition in vivo at 5 mg/kg: 70.2%
Rattus norvegicus [40]
  inhibition in vivo at 5 mg/kg: 93.7%
Rattus norvegicus [41]
  Volume: 3.3 ml 4hr-1
Rattus norvegicus [42]
  Length: 92.8 mm
Rattus norvegicus [43]
  Length: 21 mm
Rattus norvegicus [44]
  Length: 110 mm
Rattus norvegicus [45]
  Length: 34.9 mm
Rattus norvegicus [46]
  inhibition in vivo at 1.25 mg/kg: 50.4%
Rattus norvegicus [47]
  Acid output: 98.5 u equiv hr-1
Rattus norvegicus [48]
  Length: 8.9 mm
Rattus norvegicus [49]
  Length: 127 mm
Rattus norvegicus [50]
  inhibition in vivo at 2.5 mg/kg: 51.2%
Rattus norvegicus [51]
  Length: 72.6 mm
Rattus norvegicus [52]
  pH: 1.41

— ChEMBL document CHEMBL1144970, “Protective effects of steroid saponins from Paris polyphylla var. yunnanensis on ethanol- or indomethacin-induced gastric mucosal lesions in rats: structural requirement for activity and mode of action” (Bioorg Med Chem Lett, 2003)
